Assay results as given in patent publication US11787762B2, “Tetralin and tetrahydroquinoline compounds as inhibitors of HIF-2alpha” (ARCUS BIOSCIENCES, INC., priority 2020, dated 2023).
pIC50: −log10 of the molar value.

Each compound was assayed against T1, HIF-2α (Homo sapiens, UniProt Q99814) (assay: HIF-2α luciferase reporter assay in HIF-Luc-786-O cells). Conditions: Table 1, 20 hours incubation.
T1 construct: host or cells: 786-O cells stably transduced with Cignal Lenti HIF Luc Reporter (only the reporter was introduced, not HIF-2α)
Format: cell-based
In short: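 Luminescence (ONE-Glo) read after 20 h compound incubation, top concentration 50 uM, 1% DMSO, 20,000 HIF-Luc-786-O cells per well. Activity scaled between DMSO maximum and no-cell baseline; four-parameter dose-response fits yielded IC50.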

T1 sequence (Q99814 whole entry): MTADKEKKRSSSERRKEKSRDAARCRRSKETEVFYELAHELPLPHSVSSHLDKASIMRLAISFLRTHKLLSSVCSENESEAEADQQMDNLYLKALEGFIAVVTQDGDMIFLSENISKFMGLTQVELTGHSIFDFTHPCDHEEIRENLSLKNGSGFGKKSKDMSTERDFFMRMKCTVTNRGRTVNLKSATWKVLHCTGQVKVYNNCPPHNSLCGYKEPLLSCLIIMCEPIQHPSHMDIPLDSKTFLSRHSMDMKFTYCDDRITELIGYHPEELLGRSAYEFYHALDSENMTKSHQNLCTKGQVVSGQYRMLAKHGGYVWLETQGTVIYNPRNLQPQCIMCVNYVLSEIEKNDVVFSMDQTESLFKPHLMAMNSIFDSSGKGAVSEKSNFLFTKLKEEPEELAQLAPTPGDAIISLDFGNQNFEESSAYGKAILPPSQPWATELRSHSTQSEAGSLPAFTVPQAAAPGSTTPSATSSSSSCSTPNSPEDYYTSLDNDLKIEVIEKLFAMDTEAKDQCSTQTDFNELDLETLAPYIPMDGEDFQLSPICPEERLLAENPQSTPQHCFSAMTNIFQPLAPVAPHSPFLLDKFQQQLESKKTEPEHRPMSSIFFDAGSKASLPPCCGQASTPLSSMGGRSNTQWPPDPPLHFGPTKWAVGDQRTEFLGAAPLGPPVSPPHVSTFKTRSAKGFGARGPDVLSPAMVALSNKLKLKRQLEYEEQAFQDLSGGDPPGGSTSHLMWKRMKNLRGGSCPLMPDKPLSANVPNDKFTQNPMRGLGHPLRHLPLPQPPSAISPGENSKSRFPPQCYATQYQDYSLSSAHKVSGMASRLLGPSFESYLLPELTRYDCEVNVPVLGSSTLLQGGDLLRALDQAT

Row | pIC50 | Compound
1 | < 6.00 | O=[N+]([O-])c1cc(S(=O)(=O)C(F)(F)F)ccc1N1CCOc2ccc(Cl)cc21 [Example 82]

Same assay, conditions: Table 3, 20 hours incubation

Row | Compound | pIC50
2 | N#Cc1cc(F)cc2c1[C@@H](c1ccc(-c3cnccc3F)c3c1CC(F)(F)[C@H]3O)CC[C@@H]2F [Example 163, (5S,8R)-8-[(1S)-2,2-difluoro-7-(4-fluoropyridin-3-yl)-1-hydroxy-2,3-dihydro-1H-inden-4-yl]-3,5-difluoro-5,6,7,8-tetrahydronaphthalene-1-carbonitrile] | > 7.00
3 | N#Cc1cc(F)cc2c1[C@@H](c1ccc(-c3cccnc3)c3c1CC(F)(F)[C@H]3O)CC[C@@H]2F [Example 160, (5S,8R)-8-[(1S)-2,2-difluoro-1-hydroxy-7-pyridin-3-yl-1,3-dihydroinden-4-yl]-3,5-difluoro-5,6,7,8-tetrahydronaphthalene-1-carbonitrile] | > 7.00
4 | N#Cc1cc(F)cc2c1[C@@H](c1ccc(-c3cccc4scnc34)c3c1CC(F)(F)[C@H]3O)CC[C@@H]2F [Example 190, (5S,8R)-8-[(1S)-7-(1,3-benzothiazol-4-yl)-2,2-difluoro-1-hydroxy-1,3-dihydroinden-4-yl]-3,5-difluoro-5,6,7,8-tetrahydronaphthalene-1-carbonitrile] | 6.00 to 7.00
5 | Cc1ncoc1-c1ccc([C@H]2CC[C@H](F)c3cc(F)cc(C#N)c32)c2c1[C@H](O)C(F)(F)C2 [Example 151, (5S,8R)-8-[(1S)-2,2-difluoro-1-hydroxy-7-(4-methyl-1,3-oxazol-5-yl)-1,3-dihydroinden-4-yl]-3,5-difluoro-5,6,7,8-tetrahydronaphthalene-1-carbonitrile] | > 7.00
6 | N#Cc1cc(F)cc2c1[C@@H](c1ccc(-c3ncncc3N)c3c1CC(F)(F)[C@H]3O)CC[C@@H]2F [Example 181, (5S,8R)-8-[(1S)-7-(5-aminopyrimidin-4-yl)-2,2-difluoro-1-hydroxy-1,3-dihydroinden-4-yl]-3,5-difluoro-5,6,7,8-tetrahydronaphthalene-1-carbonitrile] | 6.00 to 7.00
7 | Cn1cnc(-c2ccc([C@H]3CC[C@H](F)c4cc(F)cc(C#N)c43)c3c2[C@H](O)C(F)(F)C3)n1 [Example 182, (5S,8R)-8-[(1S)-2,2-difluoro-1-hydroxy-7-(1-methyl-1,2,4-triazol-3-yl)-1,3-dihydroinden-4-yl]-3,5-difluoro-5,6,7,8-tetrahydronaphthalene-1-carbonitrile] | 6.00 to 7.00
8 | Cc1nc(N)sc1-c1ccc([C@H]2CC[C@H](F)c3cc(F)cc(C#N)c32)c2c1[C@H](O)C(F)(F)C2 [Example 188, (5S,8R)-8-[(1S)-7-(2-amino-4-methyl-1,3-thiazol-5-yl)-2,2-difluoro-1-hydroxy-1,3-dihydroinden-4-yl]-3,5-difluoro-5,6,7,8-tetrahydronaphthalene-1-carbonitrile] | 6.00 to 7.00
9 | Cc1nccnc1-c1ccc([C@H]2CC[C@H](F)c3cc(F)cc(C#N)c32)c2c1[C@H](O)C(F)(F)C2 [Example 176, (5S,8R)-8-[(1S)-2,2-difluoro-1-hydroxy-7-(3-methylpyrazin-2-yl)-1,3-dihydroinden-4-yl]-3,5-difluoro-5,6,7,8-tetrahydronaphthalene-1-carbonitrile] | > 7.00
10 | N#Cc1cc(F)cc2c1[C@@H](c1ccc(-c3ccn[nH]3)c3c1C[C@@H](F)[C@H]3O)CC[C@@H]2F [Example 172, (5S,8R)-3,5-difluoro-8-[(1S,2R)-2-fluoro-1-hydroxy-7-(1H-pyrazol-5-yl)-2,3-dihydro-1H-inden-4-yl]-5,6,7,8-tetrahydronaphthalene-1-carbonitrile] | < 6.00
11 | N#Cc1cc(F)cc2c1[C@@H](c1ccc(-c3cccnc3C#N)c3c1CC(F)(F)[C@H]3O)CC[C@@H]2F [Example 184, 3-[(3S)-7-[(1R,4S)-8-cyano-4,6-difluoro-1,2,3,4-tetrahydronaphthalen-1-yl]-2,2-difluoro-3-hydroxy-1,3-dihydroinden-4-yl]pyridine-2-carbonitrile] | > 7.00

The next lines start with the values.

Row | pIC50 | Compound
12 | > 7.00 | Cn1nncc1-c1ccc([C@H]2C[C@H](F)[C@H](F)c3cc(F)cc(C#N)c32)c2c1[C@H](O)C(F)(F)C2 [Example 218, (5R,6S,8R)-8-[(1S)-2,2-difluoro-1-hydroxy-7-(1-methyl-1H-1,2,3-triazol-5-yl)-2,3-dihydro-1H-inden-4-yl]-3,5,6-trifluoro-5,6,7,8-tetrahydronaphthalene-1-carbonitrile]
13 | > 7.00 | N#Cc1cc(F)cc2c1[C@@H](c1ccc(-c3cnc4c(N)cccn34)c3c1CC(F)(F)[C@H]3O)CC[C@@H]2F [Example 230, (5S,8R)-8-[(1S)-7-(8-aminoimidazo[1,2-a]pyridin-3-yl)-2,2-difluoro-1-hydroxy-1,3-dihydroinden-4-yl]-3,5-difluoro-5,6,7,8-tetrahydronaphthalene-1-carbonitrile]
14 | > 7.00 | N#Cc1cc(F)cc2c1[C@@H](c1ccc(-c3scnc3CO)c3c1CC(F)(F)[C@H]3O)CC[C@@H]2F [Example 191, (5S,8R)-8-[(1S)-2,2-difluoro-1-hydroxy-7-[4-(hydroxymethyl)-1,3-thiazol-5-yl]-1,3-dihydroinden-4-yl]-3,5-difluoro-5,6,7,8-tetrahydronaphthalene-1-carbonitrile]
15 | > 7.00 | Cc1ncn(C)c1-c1ccc([C@H]2CC[C@H](F)c3cc(F)cc(C#N)c32)c2c1[C@H](O)C(F)(F)C2 [Example 232, (5S,8R)-8-[(1S)-7-(3,5-dimethylimidazol-4-yl)-2,2-difluoro-1-hydroxy-1,3-dihydroinden-4-yl]-3,5-difluoro-5,6,7,8-tetrahydronaphthalene-1-carbonitrile]
16 | > 7.00 | N#Cc1cc(F)cc2c1[C@@H](c1ccc(Cl)c3c1CC(F)(F)[C@H]3O)C[C@H](F)[C@@H]2F [Example 219, (5R,6S,8R)-8-[(1S)-7-chloro-2,2-difluoro-1-hydroxy-2,3-dihydro-1H-inden-4-yl]-3,5,6-trifluoro-5,6,7,8-tetrahydronaphthalene-1-carbonitrile]
17 | 6.00 to 7.00 | Cc1nc(S(C)(=O)=O)ccc1-c1ccc([C@H]2CC[C@H](F)c3cc(F)cc(C#N)c32)c2c1[C@H](O)C(F)(F)C2 [Example 198, (5S,8R)-8-[(1S)-2,2-difluoro-1-hydroxy-7-(2-methyl-6-methylsulfonylpyridin-3-yl)-1,3-dihydroinden-4-yl]-3,5-difluoro-5,6,7,8-tetrahydronaphthalene-1-carbonitrile]
18 | > 7.00 | N#Cc1cc(F)cc2c1[C@@H](c1ccc(-n3ccnc3)c3c1CC(F)(F)[C@H]3O)CC[C@@H]2F [Example 199, (5S,8R)-8-[(1S)-2,2-difluoro-1-hydroxy-7-imidazol-1-yl-1,3-dihydroinden-4-yl]-3,5-difluoro-5,6,7,8-tetrahydronaphthalene-1-carbonitrile]
19 | > 7.00 | N#Cc1cc(F)cc2c1[C@@H](c1cc(F)c(Cl)c3c1CC(F)(F)[C@H]3O)CC[C@@H]2F [Example 207, (5S,8R)-8-[(1S)-7-chloro-2,2,6-trifluoro-1-hydroxy-1,3-dihydroinden-4-yl]-3,5-difluoro-5,6,7,8-tetrahydronaphthalene-1-carbonitrile]
20 | 6.00 to 7.00 | CS(=O)(=O)c1ccc([C@H]2CC[C@H](F)c3cc(F)cc(C#N)c32)c2c1[C@H](O)[C@](F)(C#N)C2 [Example 248, (5S,8R)-8-[(1S,2R)-2-cyano-2-fluoro-1-hydroxy-7-methylsulfonyl-1,3-dihydroinden-4-yl]-3,5-difluoro-5,6,7,8-tetrahydronaphthalene-1-carbonitrile]
21 | > 7.00 | Cc1nc(C#N)ncc1-c1ccc([C@H]2C[C@H](F)[C@H](F)c3cc(F)cc(C#N)c32)c2c1[C@H](O)C(F)(F)C2 [Example 220, 5-[(3S)-7-[(1R,3S,4R)-8-cyano-3,4,6-trifluoro-1,2,3,4-tetrahydronaphthalen-1-yl]-2,2-difluoro-3-hydroxy-2,3-dihydro-1H-inden-4-yl]-4-methylpyrimidine-2-carbonitrile]
22 | 6.00 to 7.00 | N#Cc1cc(F)cc2c1[C@@H](c1ccc(-c3c[nH]c4ncccc34)c3c1CC(F)(F)[C@H]3O)CC[C@@H]2F [Example 243, (5S,8R)-8-[(1S)-2,2-difluoro-1-hydroxy-7-{1H-pyrrolo[2,3-b]pyridin-3-yl}-2,3-dihydro-1H-inden-4-yl]-3,5-difluoro-5,6,7,8-tetrahydronaphthalene-1-carbonitrile]
23 | > 7.00 | Cc1cccnc1-c1ccc([C@H]2CC[C@H](F)c3cc(F)cc(C#N)c32)c2c1[C@H](O)C(F)(F)C2 [Example 244, (5S,8R)-8-[(1S)-2,2-difluoro-1-hydroxy-7-(3-methylpyridin-2-yl)-2,3-dihydro-1H-inden-4-yl]-3,5-difluoro-5,6,7,8-tetrahydronaphthalene-1-carbonitrile]
24 | > 7.00 | N#Cc1cc(F)cc2c1[C@@H](c1ccc(Cl)c3c1C[C@@H](F)[C@H]3O)CC[C@@H]2F [Example 222, (5S,8R)-8-[(1S,2R)-7-chloro-2-fluoro-1-hydroxy-2,3-dihydro-1H-inden-4-yl]-3,5-difluoro-5,6,7,8-tetrahydronaphthalene-1-carbonitrile]
25 | > 7.00 | Cc1ccc(-c2ccc([C@H]3CC[C@H](F)c4cc(F)cc(C#N)c43)c3c2[C@H](O)C(F)(F)C3)c(N)c1 [Example 195, (5S,8R)-8-[(1S)-7-(2-amino-4-methylphenyl)-2,2-difluoro-1-hydroxy-1,3-dihydroinden-4-yl]-3,5-difluoro-5,6,7,8-tetrahydronaphthalene-1-carbonitrile]
26 | > 7.00 | Cc1scnc1-c1ccc([C@H]2CC[C@H](F)c3cc(F)cc(C#N)c32)c2c1[C@H](O)C(F)(F)C2 [Example 192, (5S,8R)-8-[(1S)-2,2-difluoro-1-hydroxy-7-(5-methyl-1,3-thiazol-4-yl)-1,3-dihydroinden-4-yl]-3,5-difluoro-5,6,7,8-tetrahydronaphthalene-1-carbonitrile]
27 | > 7.00 | CC(C)(O)c1ccc([C@H]2CC[C@H](F)c3cc(F)cc(C#N)c32)c2c1[C@H](O)C(F)(F)C2 [Example 226, (5S,8R)-8-[(1S)-2,2-difluoro-1-hydroxy-7-(2-hydroxypropan-2-yl)-1,3-dihydroinden-4-yl]-3,5-difluoro-5,6,7,8-tetrahydronaphthalene-1-carbonitrile]
